{"source": "patent US7671092B2", "about": "“Paclitaxel enhancer compounds” (Synta Pharmaceuticals Corp., priority 2001, dated 2010)", "key": {"[1]": {"test_system": "MDA-435 human breast tumor", "experiment": "In vivo tumor growth inhibition assay, compound plus Paclitaxel given IV to tumor-bearing mice", "design": "species or system CD-1 nu/nu mice", "conditions": "for % Tumor Growth: vehicle = 100", "procedure": "A supplemented media was prepared from 50% DMEM/Dulbecco Modified Eagle Medium (High Glucose), 50% RPMI 1640, 10% FBS/Fetal Bovine Serum (Hybridoma Tested; Sterile Filtered), 1% L-Glutamine, 1% Penicillin-Streptomycin, 1% MEM Sodium Pyruvate and 1% MEM Non-Essential Amino Acids. FBS was obtained from Sigma Chemical Co. and other ingredients were obtained from Invitrogen Life Technologies, USA). The supplemental media was warmed to 37° C. and 50 ml of media was added to a 175 cm^2 tissue culture flask.\nThe cells used in the assay were MDA-435 Human Breast Carcinoma from the American Type Culture Collection. 1 vial of MDA-435 cells from the liquid nitrogen frozen cell stock was removed. The frozen vial of cells was immediately placed into a 37° C. water bath and gently swirled until thawed. The freeze-vial was wiped with 70% ethanol and cells were immediately pipetted into the 175 cm^2 tissue culture flask containing supplemented media. The cells were incubated overnight and the media was removed and replaced with fresh supplemented media the next day. The flask was incubated until flask became about 90% confluent. This took anywhere from 5-7 days.\nThe flask was washed with 10 ml of sterile room temperature phosphate buffered saline (PBS). The cells were trypsinized by adding 5 ml of warmed Trypsin-EDTA (Invitrogen) to the flask of cells. […] An equal volume of supplemented media (5 ml) was added to the flask. All the cells were collected into 50 ml tube, and centrifuged at 1000 RPM for 5 minutes at 20° C. The supernatant was aspirated and the cell pellet was resuspended in 10 ml of supplemented media and the cells were counted. 1-3 million cells/flask were seeded into 5-7 tissue culture flasks (175 cm^2). Each flask contained 50 ml of supplemented media. The flasks were incubated until about 90% confluent. The passaging of the cells was repeated until enough cells have been grown for tumor implantation.\nThe above procedure for trypsinizing and centrifuging the cells were followed. The supernatant was aspirated and the cell pellet was resuspended in 10 ml of sterile PBS and the cells were counted. The cells were centrifuged and then resuspended with appropriate volume of sterile PBS for injection of correct number of cells needed for tumor implantation. In the case of MDA-435, 100 million cells were suspended with 2.0 ml of sterile PBS to a final concentration of 50 million cells/ml in order to inject 5 million cells in 0.1 ml/mouse.\nMice (CD-1 nu/nu) were obtained from Charles River Laboratories: nomenclature: Crl:CD-1-nuBR, Age: 6-8 weeks. The mice were allowed to acclimate for 1 week prior to their being used in an experimental procedure.\nImplantation of the MDA-435 tumor cell suspension took place into the corpus adiposum of the female CD-1 nu/nu mouse. […] Tumor cells were implanted subcutaneously into the fat body located in the right quadrant of the abdomen at the juncture of the os coxae (pelvic bone) and the os femoris (femur). 5 million MDA-435 cells in 0.1 ml of sterile PBS were injected using 27 G (½ inch) needle. MDA-435 tumors developed 2-3 weeks after implantation.\nCompound stock solutions were prepared by dissolving the compound in cell-culture-grade DMSO (dimethyl sulfoxide) at the desired concentration. This stock solution in DMSO was sonicated in an ultrasonic water bath until all the powder dissolved."}, "[2]": {"assay_type": "in vivo", "conditions": "mice treated with Paclitaxel and Compound (1); FIG. 2", "description": "The in vivo anti-cancer enhancing effect of novel compounds was assessed in tumor bearing mice using the tumor growth inhibition assay. Tumor cells were implanted by injection of a tumor cell suspension subcutaneously in the flank of a mouse. […] Animal then begun a multiple injection schedule where the compound and Paclitaxel were given by IV route of administration. Tumors were measured two times a week. During the course of this assay, animals were monitored daily for signs of toxicity including body weight loss."}}, "note": "Values joined by “and” are separate entries in the source; they are usually repeats but may differ in a detail not shown here. Equal values may be shown once.", "data": [{"smiles": "CC(=O)O[C@H]1C(=O)[C@@]2(C)[C@H]([C@H](OC(=O)c3ccccc3)[C@]3(O)C[C@H](OC(=O)[C@H](O)[C@@H](NC(=O)c4ccccc4)c4ccccc4)C(C)=C1C3(C)C)[C@]1(OC(C)=O)CO[C@@H]1C[C@@H]2O", "note": "[Paclitaxel]", "values": [{"measurement": "% Tumor Growth", "setting": "[1]; Example 13, Day 23, Group 2: Paclitaxel 2 mg/kg alone, IV, 3 times a week for 3 weeks", "value": 86, "unit": "%"}, {"measurement": "% Tumor Growth", "setting": "[1]; Example 13, Day 23, Group 3: Paclitaxel 5 mg/kg alone, IV, 3 times a week for 3 weeks", "value": 55, "unit": "%"}, {"measurement": "Average Tumor Volume (mm^3) on Day 23", "setting": "[1]; Example 13, Group 2: Paclitaxel 2 mg/kg alone, IV, 3 times a week for 3 weeks", "value": 259.8, "unit": "mm^3"}, {"measurement": "Average Tumor Volume (mm^3) on Day 23", "setting": "[1]; Example 13, Group 3: Paclitaxel 5 mg/kg alone, IV, 3 times a week for 3 weeks", "value": 164.8, "unit": "mm^3"}, {"measurement": "Average Tumor Volume [mm^3]", "setting": "[1]; Example 14, Day 48, Group 2: Paclitaxel 10 mg/kg alone, IV, 3 times a week for 3 weeks", "value": "105 mm^3 and 105.4 mm^3"}, {"measurement": "% Tumor Growth Inhibition on Day 48", "setting": "[1]; Example 14, Group 2: Paclitaxel 10 mg/kg alone, IV, 3 times a week for 3 weeks", "value": 86, "unit": "%"}, {"measurement": "Anti-tumor activity", "setting": "[1]; Example 14: Paclitaxel 10 mg/kg alone, IV, 3 times a week for 3 weeks", "value": "significant anti-tumor activity was observed"}, {"measurement": "Average % Tumor Growth Inhibition on Day 27", "setting": "[1]; Example 15, Group 2: Paclitaxel 5 mg/kg alone, IV, 3 times a week for 3 weeks", "value": 19, "unit": "%"}]}, {"smiles": "CN(NC(=O)CC(=O)NN(C)C(=S)c1ccccc1)C(=S)c1ccccc1", "note": "[Compound (1), N-Malonyl-bis[N′-methyl-N′-(thiobenzoyl)hydrazide]]", "values": [{"measurement": "Enhancement of anti-tumor activity of Paclitaxel", "setting": "[1]; Example 12, FIG. 1: Compound (1) 25 or 50 mg/kg + Paclitaxel 5 mg/kg, IV, 3 times a week for 3 weeks", "value": "significantly enhanced anti-tumor activity of Paclitaxel"}, {"measurement": "% Tumor Growth", "setting": "[1]; Example 13, Day 23, Groups 4-5: compound 80 mg/kg alone, IV, 3 times a week for 3 weeks", "value": 90, "unit": "%"}, {"measurement": "% Tumor Growth", "setting": "[1]; Example 13, Day 23, Groups 6 and 8: compound 80 mg/kg + Paclitaxel 2 mg/kg, IV, 3 times a week for 3 weeks", "value": 64, "unit": "%"}, {"measurement": "% Tumor Growth", "setting": "[1]; Example 13, Day 23, Groups 7 and 9: compound 80 mg/kg + Paclitaxel 5 mg/kg, IV, 3 times a week for 3 weeks", "value": 35, "unit": "%"}, {"measurement": "Average Tumor Volume (mm^3) on Day 23", "setting": "[1]; Example 13, Groups 4-5: compound 80 mg/kg alone, IV, 3 times a week for 3 weeks", "value": 270.0, "unit": "mm^3"}, {"measurement": "Average Tumor Volume (mm^3) on Day 23", "setting": "[1]; Example 13, Groups 6 and 8: compound 80 mg/kg + Paclitaxel 2 mg/kg, IV, 3 times a week for 3 weeks", "value": 193.3, "unit": "mm^3"}, {"measurement": "Average Tumor Volume (mm^3) on Day 23", "setting": "[1]; Example 13, Groups 7 and 9: compound 80 mg/kg + Paclitaxel 5 mg/kg, IV, 3 times a week for 3 weeks", "value": 106.2, "unit": "mm^3"}, {"measurement": "Enhancement of anti-tumor activity of Paclitaxel", "setting": "[1]; Example 13: compound 80 mg/kg + Paclitaxel at both 2 mg/kg and 5 mg/kg, IV, 3 times a week for 3 weeks", "value": "significantly enhanced anti-tumor activity of Paclitaxel"}, {"measurement": "Average Tumor Volume [mm^3]", "setting": "[1]; Example 14, Day 48, Group 3: Compound (1) 50 mg/kg alone, IV, 3 times a week for 3 weeks", "value": 754.9, "unit": "mm^3"}, {"measurement": "Average Tumor Volume [mm^3]", "setting": "[1]; Example 14, Day 48, Group 4: Compound (1) 25 mg/kg + Paclitaxel 10 mg/kg, IV, 3 times a week for 3 weeks", "value": 0.59, "unit": "mm^3"}, {"measurement": "% Tumor Growth Inhibition on Day 48", "setting": "[1]; Example 14, Group 3: Compound (1) 50 mg/kg alone, IV, 3 times a week for 3 weeks", "value": 0, "unit": "%"}, {"measurement": "Tumor volume, fold less than with Paclitaxel alone or Compound (1) alone", "setting": "[1]; after 24 days of treatment, Paclitaxel 5 mg/kg + Compound (1) 25 mg/kg versus Paclitaxel 5 mg/kg only or Compound (1) 50 mg/kg only, FIG. 1", "value": "about five"}, {"measurement": "Weight loss over the treatment period", "setting": "[2]", "value": "little if any weight loss"}]}]}
